Measured values from patent US10973784B2, “Compositions and methods for treating Alzheimer's disease and Parkinson's disease” (Biotie Therapies, Inc., priority 2016, dated 2021).
Several values for one entry are separate records, joined by “and”; a condition that tells them apart may be missing. Identical values can stand only once. Like-named read-outs stand apart in the source and are kept apart here.

Key:
[1] = Pharmacokinetic analysis of SYN120 tablets, multiple dose once daily (Example 9); format: in vivo, human; conditions: for Ae % / % Fluctuation / CL renal / half-life: arithmetic mean; for Ae %: urine; for CL renal / Cmax / AUC(0-t) / Tmax / concentration at 14 day / half-life: both sexes, human, oral; for CL renal: plasma and urine, read-out: 0-24 Clr; for Cmax / AUC(0-t) / Tmax / concentration at 14 day / half-life: plasma; for Cmax / AUC(0-t) / concentration at 14 day: geometric mean
Procedure: PK analysis in a multiple dose study was performed on 28 subjects (10 males and 18 females) on day 1 and on 27 subjects (10 males and 17 females) on day 14 who received SYN120 oral tablets. The dosing interval was once daily, approximately 40 minutes after a standard breakfast, for up to 21 days. The subjects were administered the same dose of SYN120 daily at one of the following doses: 100 mg; 300 mg; and 600 mg. The SYN120 oral tablets used in this study were the 50 mg tablets as described in Example 8.
Plasma samples were prepared from blood samples for PK analysis collected on days 1 and 14 at the following time points: 0, 0.5, 1, 1.5, 2, 3, 4, 6, 8, 12, and 24 hrs postdose. Additional blood samples were taken following administration on Day 14 at 32, 36, 48, 72, and 168 hrs (day 15 through day 21). In addition, on days 4 and 10, predose blood samples were collected, while on day 7, blood samples were collected predose and 4 hrs postdose. […] Mean plasma SYN120 concentrations at Day 1, (FIG. 7A and FIG. 7B), and at Day 14 (FIG. 8A and FIG. 8B) are also provided.

[2] = Plasma concentrations of SYN120 at 100 mg QD after titration (Example 10); format: in vivo, human; conditions: for Plasma concentration of SYN120, individual samples: 100 mg QD after titration; for Plasma concentration of SYN120, Max / Plasma concentration of SYN120, Median / Plasma concentration of SYN120, Min / Plasma concentration of SYN120, Mean: 100 mg QD
Procedure: Patients taking SYN120 are titrated from a starting dose of 20 mg SYN120 QD for the first 7 days, followed by 50 mg SYN120 QD for the next 7 days, then 100 mg SYN120 QD for the remaining portion of the study. Plasma samples are taken on study weeks 4, 8 and 16, and a shown below in Table 17.

[3] = biological target: 5-HT2A receptor (Homo sapiens, UniProt P28223); conditions: cited from earlier work
Sequence of 5-HT2A receptor (P28223 whole entry): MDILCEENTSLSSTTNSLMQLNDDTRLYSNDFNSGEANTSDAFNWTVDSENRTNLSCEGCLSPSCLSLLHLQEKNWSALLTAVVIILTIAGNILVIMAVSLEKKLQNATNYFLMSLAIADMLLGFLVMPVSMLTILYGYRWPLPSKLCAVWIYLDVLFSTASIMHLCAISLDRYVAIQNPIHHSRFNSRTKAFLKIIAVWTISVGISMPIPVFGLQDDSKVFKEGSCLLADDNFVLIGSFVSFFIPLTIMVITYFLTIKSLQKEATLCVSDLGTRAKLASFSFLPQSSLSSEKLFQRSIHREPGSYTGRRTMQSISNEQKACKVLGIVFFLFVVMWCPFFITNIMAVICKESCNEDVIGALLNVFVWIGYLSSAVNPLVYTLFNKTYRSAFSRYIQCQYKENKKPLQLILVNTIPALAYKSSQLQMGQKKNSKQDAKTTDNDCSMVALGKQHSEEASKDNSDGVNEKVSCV

[4] = biological target: 5-HT2B receptor (Homo sapiens, UniProt P41595); conditions: cited from earlier work
Sequence of 5-HT2B receptor (P41595 whole entry): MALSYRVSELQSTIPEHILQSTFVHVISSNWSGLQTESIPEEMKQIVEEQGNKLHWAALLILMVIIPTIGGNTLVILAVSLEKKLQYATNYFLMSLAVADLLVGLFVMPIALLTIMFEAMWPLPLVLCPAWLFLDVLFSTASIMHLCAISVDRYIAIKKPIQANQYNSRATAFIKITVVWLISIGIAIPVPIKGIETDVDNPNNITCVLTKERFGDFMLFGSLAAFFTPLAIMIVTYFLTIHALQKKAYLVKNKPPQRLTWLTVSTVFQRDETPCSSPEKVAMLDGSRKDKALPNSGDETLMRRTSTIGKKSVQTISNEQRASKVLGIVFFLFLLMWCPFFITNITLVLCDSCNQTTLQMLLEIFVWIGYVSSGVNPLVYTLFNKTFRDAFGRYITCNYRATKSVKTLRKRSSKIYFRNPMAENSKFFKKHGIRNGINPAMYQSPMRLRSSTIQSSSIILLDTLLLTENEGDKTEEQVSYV

[5] = biological target: T1, 5-HT2C receptor (Homo sapiens, UniProt P28335); conditions: cited from earlier work
T1 sequence (P28335 33-458): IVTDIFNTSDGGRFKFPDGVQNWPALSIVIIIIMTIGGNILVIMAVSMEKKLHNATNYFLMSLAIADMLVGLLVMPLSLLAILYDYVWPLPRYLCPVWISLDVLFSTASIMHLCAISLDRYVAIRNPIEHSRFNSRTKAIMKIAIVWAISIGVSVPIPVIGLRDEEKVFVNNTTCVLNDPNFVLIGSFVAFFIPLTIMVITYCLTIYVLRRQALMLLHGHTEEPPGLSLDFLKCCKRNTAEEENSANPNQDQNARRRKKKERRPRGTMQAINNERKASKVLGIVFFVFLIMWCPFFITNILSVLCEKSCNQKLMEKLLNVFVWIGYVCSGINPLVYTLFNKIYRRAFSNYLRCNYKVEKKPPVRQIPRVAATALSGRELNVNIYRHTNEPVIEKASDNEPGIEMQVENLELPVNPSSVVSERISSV

% Fluctuation ([1]; Day 14, 100 mg QD): 177%
Tlast ([1]; Day 14, 100 mg QD, median): 168 h
% Fluctuation ([1]; Day 14, 300 mg QD): 209%
Tlast ([1]; Day 14, 300 mg QD, median): 168 h
% Fluctuation ([1]; Day 14, 600 mg QD): 212%
Tlast ([1]; Day 14, 600 mg QD, median): 168 h
CL renal ([1]; 100 mg, Day 1, 100 mg QD): 1.25 mL/min
CL renal ([1]; 100 mg, Day 14, 100 mg QD): 1.33 mL/min
CL renal ([1]; 300 mg, Day 1, 300 mg QD): 1.33 mL/min
CL renal ([1]; 300 mg, Day 14, 300 mg QD): 1.34 mL/min
CL renal ([1]; 600 mg, Day 1, 600 mg QD): 1.45 mL/min
CL renal ([1]; 600 mg, Day 14, 600 mg QD): 1.31 mL/min
Cmax ([1]; 100 mg, Day 1, 100 mg QD): 813 ng/mL
AUC(0-t) ([1]; 100 mg, Day 1, 100 mg QD, read-out: AUC0-24): 7780 ng·h/mL
AUC(0-t) ([1]; 100 mg, Day 1, 100 mg QD, read-out: AUC0-last): 7780 ng·h/mL
Tmax ([1]; 100 mg, Day 1, 100 mg QD, median, read-out: Tmax): 4 h
Cmax ([1]; 100 mg, Day 14, 100 mg QD): 1240 ng/mL
AUC(0-t) ([1]; 100 mg, Day 14, 100 mg QD, read-out: AUC0-24): 14200 ng·h/mL
AUC(0-t) ([1]; 100 mg, Day 14, 100 mg QD, read-out: AUC0-last): 19200 ng·h/mL
concentration at 14 day ([1]; 100 mg, Day 14, 100 mg QD, read-out: Cmin): 201 ng/mL
concentration at 14 day ([1]; 100 mg, Day 14, 100 mg QD, read-out: Css): 591 ng/mL
Tmax ([1]; 100 mg, Day 14, 100 mg QD, median, read-out: Tmax): 3 h
Cmax ([1]; 300 mg, Day 1, 300 mg QD): 2750 ng/mL
AUC(0-t) ([1]; 300 mg, Day 1, 300 mg QD, read-out: AUC0-24): 29500 ng·h/mL
AUC(0-t) ([1]; 300 mg, Day 1, 300 mg QD, read-out: AUC0-last): 29500 ng·h/mL
Tmax ([1]; 300 mg, Day 1, 300 mg QD, median, read-out: Tmax): 4 h
Cmax ([1]; 300 mg, Day 14, 300 mg QD): 3470 ng/mL
AUC(0-t) ([1]; 300 mg, Day 14, 300 mg QD, read-out: AUC0-24): 36000 ng·h/mL
AUC(0-t) ([1]; 300 mg, Day 14, 300 mg QD, read-out: AUC0-last): 45700 ng·h/mL
concentration at 14 day ([1]; 300 mg, Day 14, 300 mg QD, read-out: Cmin): 357 ng/mL
concentration at 14 day ([1]; 300 mg, Day 14, 300 mg QD, read-out: Css): 1500 ng/mL
Tmax ([1]; 300 mg, Day 14, 300 mg QD, median, read-out: Tmax): 3 h
Cmax ([1]; 600 mg, Day 1, 600 mg QD): 5180 ng/mL
AUC(0-t) ([1]; 600 mg, Day 1, 600 mg QD, read-out: AUC0-24): 59600 ng·h/mL
AUC(0-t) ([1]; 600 mg, Day 1, 600 mg QD, read-out: AUC0-last): 59600 ng·h/mL
Tmax ([1]; 600 mg, Day 1, 600 mg QD, median, read-out: Tmax): 4 h
Cmax ([1]; 600 mg, Day 14, 600 mg QD): 5460 ng/mL
AUC(0-t) ([1]; 600 mg, Day 14, 600 mg QD, read-out: AUC0-24): 56100 ng·h/mL
AUC(0-t) ([1]; 600 mg, Day 14, 600 mg QD, read-out: AUC0-last): 74000 ng·h/mL
concentration at 14 day ([1]; 600 mg, Day 14, 600 mg QD, read-out: Cmin): 520 ng/mL
concentration at 14 day ([1]; 600 mg, Day 14, 600 mg QD, read-out: Css): 2340 ng/mL
Tmax ([1]; 600 mg, Day 14, 600 mg QD, median, read-out: Tmax): 3.51 h
Tmax ([1]; Day 14, across dose groups, read-out: median Tmax): 3 to 3.51 h
Tmax ([1]; Study Day 1, each dose group, read-out: median Tmax): 4 h
half-life ([1]; Day 14, 100 mg QD): 15.4 h
half-life ([1]; Day 14, 300 mg QD): 15.5 h
half-life ([1]; Day 14, 600 mg QD, n = 7): 15 h
Plasma concentration of SYN120, Max ([2]; time range 0.5 h-1.5 h): 1310 ng/mL
Plasma concentration of SYN120, Median ([2]; time range 0.5 h-1.5 h): 309 ng/mL
Plasma concentration of SYN120, Min ([2]; time range 0.5 h-1.5 h): 8.57 ng/mL
Plasma concentration of SYN120, Mean ([2]; time range 0.5 h-1.5 h, n 7): 406.1 ng/mL
Plasma concentration of SYN120, Max ([2]; time range 1.5 h-2.5 h): 705 ng/mL
Plasma concentration of SYN120, Median ([2]; time range 1.5 h-2.5 h): 372 ng/mL
Plasma concentration of SYN120, Min ([2]; time range 1.5 h-2.5 h): 120 ng/mL
Plasma concentration of SYN120, Mean ([2]; time range 1.5 h-2.5 h, n 8): 396.5 ng/mL
Plasma concentration of SYN120, Max ([2]; time range 2.5 h-3.5 h): 1660 ng/mL
Plasma concentration of SYN120, Median ([2]; time range 2.5 h-3.5 h): 767 ng/mL
Plasma concentration of SYN120, Min ([2]; time range 2.5 h-3.5 h): 355 ng/mL
Plasma concentration of SYN120, Mean ([2]; time range 2.5 h-3.5 h, n 7): 929.3 ng/mL
Plasma concentration of SYN120, Max ([2]; time range 3.5 h-4.5 h): 1470 ng/mL
Plasma concentration of SYN120, Median ([2]; time range 3.5 h-4.5 h): 1023 ng/mL
Plasma concentration of SYN120, Min ([2]; time range 3.5 h-4.5 h): 24.2 ng/mL
Plasma concentration of SYN120, Mean ([2]; time range 3.5 h-4.5 h, n 6): 889.4 ng/mL
Plasma concentration of SYN120, Max ([2]; time range 4.5 h-7.5 h): 1210 ng/mL
Plasma concentration of SYN120, Median ([2]; time range 4.5 h-7.5 h): 920 ng/mL
Plasma concentration of SYN120, Min ([2]; time range 4.5 h-7.5 h): 124 ng/mL
Plasma concentration of SYN120, Mean ([2]; time range 4.5 h-7.5 h, n 6): 779.5 ng/mL
time of peak plasma level after administration ([2]; once per day maintenance dosing): 1 to 4 h
Compound: NC(=O)NC[C@@H]1CCCc2cc(S(=O)(=O)c3cccc(F)c3)ccc21 [SYN120]
Ae % ([1]; Day 1, 100 mg QD): 0.610%
Ae % ([1]; Day 1, 300 mg QD): 0.857%
Ae % ([1]; Day 1, 600 mg QD): 0.997%
Ae % ([1]; Day 14, 100 mg QD): 1.15%
Ae % ([1]; Day 14, 300 mg QD): 0.988%
Ae % ([1]; Day 14, 600 mg QD): 0.756%
Plasma concentration of SYN120, individual samples ([2]; time range 0.5 h-1.5 h): 1310 ng/mL and 297 ng/mL and 116 ng/mL and 476 ng/mL and 326 ng/mL and 8.57 ng/mL and 309 ng/mL
Plasma concentration of SYN120, individual samples ([2]; time range 1.5 h-2.5 h): 120 ng/mL and 558 ng/mL and 314 ng/mL and 705 ng/mL and 229 ng/mL and 235 ng/mL and 430 ng/mL and 581 ng/mL
Plasma concentration of SYN120, individual samples ([2]; time range 2.5 h-3.5 h): 1660 ng/mL and 355 ng/mL and 473 ng/mL and 410 ng/mL and 1220 ng/mL and 1620 ng/mL and 767 ng/mL
Plasma concentration of SYN120, individual samples ([2]; time range 3.5 h-4.5 h): 1330 ng/mL and 855 ng/mL and 24.2 ng/mL and 467 ng/mL and 1190 ng/mL and 1470 ng/mL
Plasma concentration of SYN120, individual samples ([2]; time range 4.5 h-7.5 h): 1160 ng/mL and 124 ng/mL and 344 ng/mL and 989 ng/mL and 1210 ng/mL and 850 ng/mL
pKi [3]: 7.8
pKi [4]: 7.7
pKi [5]: 8.1
